ChEMBL document CHEMBL4406892 (Bioorg Med Chem Lett, 2019)
Active and inactive are the calls of the source. No cut-off for these calls is given here.

Experiments:
[1] = target: Urokinase-type plasminogen activator (Homo sapiens, UniProt P00749)
Description: Inhibition of human kidney uPA using fluorogenic Z-Pyr-Gly-Arg-MCA as substrate measured after 15 mins by fluorometric analysis

Trypsin = Trypsin (Homo sapiens, UniProt P07477+P07478+P35030); assay: Inhibition of trypsin (unknown origin) using chromogenic H-D-Ile-[…]-L-arginine-p-nitroaniline as substrate; format: protein assay
Rattus norvegicus [2] = assay: Diuretic activity in Sprague-Dawley rat model of acetazolamide-induced diuresis assessed as increase in urine volume at 1.5 mg/kg, ip pretreated with acetazolamide followed by compound treatment measured after 6 hrs; format: ADME, organism-based; details: in vivo
Rattus norvegicus [3] = assay: Diuretic activity in Sprague-Dawley rat model of acetazolamide-induced diuresis assessed as increase in sodium excretion at 1.5 mg/kg, ip pretreated with acetazolamide followed by compound treatment measured after 6 hrs; format: ADME, organism-based; details: in vivo
Rattus norvegicus [4] = assay: Antikaliuretic activity in Sprague-Dawley rat model of acetazolamide-induced diuresis assessed as decrease in potassium secretion at 1.5 mg/kg, ip pretreated with acetazolamide followed by compound treatment measured after 6 hrs; format: ADME, organism-based; details: in vivo
Plasminogen = Plasminogen (Homo sapiens, UniProt P00747); assay: Inhibition of plasmin (unknown origin) using chromogenic H-D-Ile-[…]-L-arginine-p-nitroaniline as substrate
Sequence of Plasminogen (P00747 97-580 limits assumed): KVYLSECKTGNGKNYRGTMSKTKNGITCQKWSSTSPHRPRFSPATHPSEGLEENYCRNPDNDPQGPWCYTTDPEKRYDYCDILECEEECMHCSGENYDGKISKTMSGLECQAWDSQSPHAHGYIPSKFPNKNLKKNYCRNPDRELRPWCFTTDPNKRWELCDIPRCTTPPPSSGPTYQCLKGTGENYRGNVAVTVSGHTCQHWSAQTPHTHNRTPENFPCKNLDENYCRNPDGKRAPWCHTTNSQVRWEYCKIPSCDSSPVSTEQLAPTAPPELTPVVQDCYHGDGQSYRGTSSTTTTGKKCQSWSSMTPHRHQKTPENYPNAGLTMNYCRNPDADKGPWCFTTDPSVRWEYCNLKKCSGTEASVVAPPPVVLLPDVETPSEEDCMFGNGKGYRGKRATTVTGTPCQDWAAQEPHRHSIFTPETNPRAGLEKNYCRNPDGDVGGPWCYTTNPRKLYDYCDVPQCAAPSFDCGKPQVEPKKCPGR
Sequence of Plasminogen (P00747 581-810 limits assumed): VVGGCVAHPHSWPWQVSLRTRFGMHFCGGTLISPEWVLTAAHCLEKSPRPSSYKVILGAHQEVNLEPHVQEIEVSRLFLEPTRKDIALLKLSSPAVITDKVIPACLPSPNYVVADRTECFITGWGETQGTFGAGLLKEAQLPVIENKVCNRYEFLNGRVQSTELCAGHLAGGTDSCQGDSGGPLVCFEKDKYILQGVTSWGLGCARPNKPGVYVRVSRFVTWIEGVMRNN

Prothrombin = Prothrombin (Homo sapiens, UniProt P00734); assay: Inhibition of thrombin (unknown origin) using chromogenic H-D-Ile-[…]-L-arginine-p-nitroaniline as substrate
Coagulation factor X = Coagulation factor X (Homo sapiens, UniProt P00742); assay: Inhibition of factor Xa (unknown origin)
Sequence of Coagulation factor X (P00742 41-179 limits assumed): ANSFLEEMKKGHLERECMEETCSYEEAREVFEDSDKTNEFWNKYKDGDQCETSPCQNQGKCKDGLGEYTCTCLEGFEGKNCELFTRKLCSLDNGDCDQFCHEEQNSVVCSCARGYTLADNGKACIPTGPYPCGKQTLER
Sequence of Coagulation factor X (P00742 235-488 limits assumed): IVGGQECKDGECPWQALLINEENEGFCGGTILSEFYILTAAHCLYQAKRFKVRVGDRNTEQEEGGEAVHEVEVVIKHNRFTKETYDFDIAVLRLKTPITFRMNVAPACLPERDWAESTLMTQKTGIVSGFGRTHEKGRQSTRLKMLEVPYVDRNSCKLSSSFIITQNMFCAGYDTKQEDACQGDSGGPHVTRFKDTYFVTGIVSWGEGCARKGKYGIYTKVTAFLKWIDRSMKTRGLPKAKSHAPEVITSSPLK

Coagulation factor XI = Coagulation factor XI (Homo sapiens, UniProt P03951); assay: Inhibition of factor 11a (unknown origin) using chromogenic L-pyroGlu-L-Pro-L-Arg-p-nitroaniline as substrate
Sequence of Coagulation factor XI (P03951 19-387 limits assumed): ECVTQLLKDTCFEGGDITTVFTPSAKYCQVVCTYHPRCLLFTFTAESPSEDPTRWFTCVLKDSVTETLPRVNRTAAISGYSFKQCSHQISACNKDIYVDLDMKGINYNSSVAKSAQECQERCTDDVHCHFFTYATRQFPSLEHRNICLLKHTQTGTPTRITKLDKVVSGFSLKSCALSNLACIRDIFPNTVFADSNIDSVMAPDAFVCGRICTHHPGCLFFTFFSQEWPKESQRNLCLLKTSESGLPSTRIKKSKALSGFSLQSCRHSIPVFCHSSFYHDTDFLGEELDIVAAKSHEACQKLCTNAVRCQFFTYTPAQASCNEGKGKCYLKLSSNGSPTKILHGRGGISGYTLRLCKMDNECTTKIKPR
Sequence of Coagulation factor XI (P03951 388-625 limits assumed): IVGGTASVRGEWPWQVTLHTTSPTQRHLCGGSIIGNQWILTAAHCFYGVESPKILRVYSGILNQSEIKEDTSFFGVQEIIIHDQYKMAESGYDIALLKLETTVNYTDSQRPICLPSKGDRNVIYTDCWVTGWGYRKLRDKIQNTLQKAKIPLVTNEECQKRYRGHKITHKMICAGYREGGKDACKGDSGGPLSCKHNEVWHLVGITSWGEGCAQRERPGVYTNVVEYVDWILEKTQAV

[5] = target: Vitamin K-dependent protein C (Homo sapiens, UniProt P04070); assay: Inhibition of activated protein C (unknown origin) using chromogenic L-pyroGlu-L-Pro-L-Arg-p-nitroaniline as substrate
Sequence of Vitamin K-dependent protein C (P04070 43-197 limits assumed): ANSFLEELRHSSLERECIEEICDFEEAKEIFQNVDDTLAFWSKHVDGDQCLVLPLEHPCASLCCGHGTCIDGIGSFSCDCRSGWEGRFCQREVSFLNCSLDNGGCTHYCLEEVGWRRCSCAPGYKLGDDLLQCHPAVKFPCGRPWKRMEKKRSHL
Sequence of Vitamin K-dependent protein C (P04070 212-461 limits assumed): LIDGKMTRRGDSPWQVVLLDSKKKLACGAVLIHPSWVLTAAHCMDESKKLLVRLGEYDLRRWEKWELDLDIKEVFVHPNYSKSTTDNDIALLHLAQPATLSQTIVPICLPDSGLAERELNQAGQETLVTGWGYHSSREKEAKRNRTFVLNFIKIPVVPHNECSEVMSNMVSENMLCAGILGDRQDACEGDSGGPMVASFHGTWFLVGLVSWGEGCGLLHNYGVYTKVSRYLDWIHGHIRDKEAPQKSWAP

HT-1080 = assay: Antimetastatic activity against luciferase-tagged human HT1080 cells xenografted in NSG mouse assessed as reduction in lung burden at 7.5 mg/kg/day, ip for 21 days by luciferase assay; format: functional, organism-based
Plasma kallikrein = Plasma kallikrein (Homo sapiens, UniProt P03952)
Sequence of Plasma kallikrein (P03952 20-390 limits assumed): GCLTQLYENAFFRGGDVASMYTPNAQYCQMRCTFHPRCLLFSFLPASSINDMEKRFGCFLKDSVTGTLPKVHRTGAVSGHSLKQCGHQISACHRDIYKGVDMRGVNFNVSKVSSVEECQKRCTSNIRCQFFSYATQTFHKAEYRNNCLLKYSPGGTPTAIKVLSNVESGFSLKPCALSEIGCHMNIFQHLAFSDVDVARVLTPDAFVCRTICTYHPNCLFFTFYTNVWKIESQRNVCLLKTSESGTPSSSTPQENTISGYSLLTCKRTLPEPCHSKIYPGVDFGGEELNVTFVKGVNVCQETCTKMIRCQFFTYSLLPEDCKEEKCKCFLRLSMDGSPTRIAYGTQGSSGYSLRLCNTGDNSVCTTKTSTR
Sequence of Plasma kallikrein (P03952 391-638 limits assumed): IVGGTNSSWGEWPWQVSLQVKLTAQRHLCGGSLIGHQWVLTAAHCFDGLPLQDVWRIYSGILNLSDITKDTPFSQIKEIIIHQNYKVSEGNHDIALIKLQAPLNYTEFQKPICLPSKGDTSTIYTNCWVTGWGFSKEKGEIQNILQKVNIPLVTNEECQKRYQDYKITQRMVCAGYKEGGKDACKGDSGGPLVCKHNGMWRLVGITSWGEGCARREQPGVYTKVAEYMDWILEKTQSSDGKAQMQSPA
Description: Inhibition of human plasma kallikrein using chromogenic L-pyroGlu-L-Pro-L-Arg-p-nitroaniline as substrate

[6] = target: Tissue-type plasminogen activator (Homo sapiens, UniProt P00750)
Sequence of Tissue-type plasminogen activator (P00750 whole entry): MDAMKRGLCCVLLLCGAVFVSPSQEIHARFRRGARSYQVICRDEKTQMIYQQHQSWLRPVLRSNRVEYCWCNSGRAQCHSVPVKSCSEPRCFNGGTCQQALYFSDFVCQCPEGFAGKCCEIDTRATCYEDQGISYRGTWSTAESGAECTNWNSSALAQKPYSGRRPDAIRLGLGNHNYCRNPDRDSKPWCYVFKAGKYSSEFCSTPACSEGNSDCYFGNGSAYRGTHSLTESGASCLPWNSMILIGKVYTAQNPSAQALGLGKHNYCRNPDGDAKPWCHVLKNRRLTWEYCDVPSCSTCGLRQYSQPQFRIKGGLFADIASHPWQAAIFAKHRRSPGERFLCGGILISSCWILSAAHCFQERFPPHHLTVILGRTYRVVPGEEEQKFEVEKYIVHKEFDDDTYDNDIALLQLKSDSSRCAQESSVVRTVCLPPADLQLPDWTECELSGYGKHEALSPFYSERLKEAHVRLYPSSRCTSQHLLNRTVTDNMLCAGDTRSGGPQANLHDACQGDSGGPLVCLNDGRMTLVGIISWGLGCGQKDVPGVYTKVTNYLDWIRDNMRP
Description: Inhibition of tissue-type plasminogen activator (unknown origin) using chromogenic H-D-Ile-L-propyl-L-arginine-p-nitroaniline as substrate

Compound	Ki [1]	further results
Cc1ccc2oc(-c3nc(C(=O)NC(=N)N)c(N)nc3N)cc2c1	642 nM	
N=C(N)NC(=O)c1nc(-c2cc3cc(Br)ccc3o2)c(N)nc1N	3650 nM	
CSc1ccc(-c2nc(C(=O)NC(=N)N)c(N)nc2N)cc1	2410 nM	
N#Cc1ccc2oc(-c3nc(C(=O)NC(=N)N)c(N)nc3N)cc2c1	904 nM	
COc1ncc(-c2nc(C(=O)NC(=N)N)c(N)nc2N)c(OC)n1	1630 nM	
N=C(N)NC(=O)c1nc(-c2ccc3occc3c2)c(N)nc1N	350 nM	
N=C(N)NC(=O)c1nc(-c2cccs2)c(N)nc1N	1260 nM	
N=C(N)NC(=O)c1nc(-c2cc3ccccc3s2)c(N)nc1N	1410 nM	
COc1ccc2cc(-c3nc(C(=O)NC(=N)N)c(N)nc3N)oc2c1	439 nM	
N=C(N)NC(=O)c1nc(-c2ccc(C(F)(F)F)cc2)c(N)nc1N	3140 nM	
N=C(N)NC(=O)c1nc(-c2cc3cc(F)ccc3o2)c(N)nc1N	587 nM	
N=C(N)NC(=O)c1nc(-c2ccco2)c(N)nc1N	776 nM	
N=C(N)NC(=O)c1nc(-c2ccccc2)c(N)nc1N	2500 nM	
N=C(N)NC(=O)c1nc(-c2ccoc2)c(N)nc1N	499 nM	
N=C(N)NC(=O)c1nc(-c2ccc3c(c2)CCO3)c(N)nc1N	1480 nM	
N=C(N)NC(=O)c1nc(-c2cc3cc(Cl)ccc3o2)c(N)nc1N	578 nM	
N=C(N)NC(=O)c1nc(-c2cc3ccccc3o2)c(N)nc1N		IC50 (Trypsin): > 50000 nM; Activity (Rattus norvegicus [2]): Non-Toxic; Activity (Rattus norvegicus [3]): Non-Toxic; Activity (Rattus norvegicus [4]): Non-Toxic
COc1ccc2oc(-c3nc(C(=O)NC(=N)N)c(N)nc3N)cc2c1	287 nM	
N=C(N)NC(=O)c1nc(Cl)c(N)nc1N [AMILORIDE]		IC50 (Plasminogen): > 20000 nM; IC50 (Prothrombin): > 20000 nM; IC50 (Trypsin): > 50000 nM; IC50 (Coagulation factor X): > 50000 nM; IC50 (Coagulation factor XI): > 50000 nM; IC50 [5]: > 50000 nM; inhibition (HT-1080): inactive; IC50 (Plasma kallikrein): > 50000 nM; IC50 [6]: > 20000 nM
Cn1cc(-c2nc(C(=O)NC(=N)N)c(N)nc2N)cn1	482 nM	
COc1ccc(-c2nc(C(=O)NC(=N)N)c(N)nc2N)c(OC)n1	1210 nM	
COc1ncc(-c2nc(C(=O)NC(=N)N)c(N)nc2N)cn1	204 nM	Activity (Rattus norvegicus [3]): Non-Toxic; Activity (Rattus norvegicus [4]): Non-Toxic
